# Measurements: US20180193493A1, “RENAL IMAGING AGENT” (NIHON MEDI-PHYSICS CO., LTD., priority 2014, published 2018)
# Key:
# [1] = tested on: CKD model animals (adriamycin-treated Lewis rats), kidneys excluding the renal pelvis; assay: PET imaging (static, SUV) in CKD models; assay type: in vivo
# Experimental: (§1) Adriamycin (from Wako Pure Chemical Industries, Ltd., 7.5 mg/kg) was administered to 13 Lewis rats (male, 8-week-old, available from Japan SLC, Inc.) via the tail vein, and urinary protein was measured in accordance with the Bradford method on day 13 after the administration, for 11 cases excluding two dead cases. Of these, four cases having a high urinary protein level were selected as CKD model animals, and used in the below-described examples on day 14 after the administration of adriamycin.
# (§2) ^18F-HIC101 (radiochemical purity: 84.2%) was administered to the four CKD models prepared in Example 1 at 18.6±0.9 MBq/rat and to four healthy models at 17.0±2.7 MBq/rat, and after 80 minutes from the administration, static imaging was performed using a PET system for animals (eXplore Vista from GE). The collection conditions were 10 minutes at an energy window of 250 to 700 keV. The collected data were reconstructed and imaged using the 3D-OSEM method. From the images, the average of maximum values of SUV (standardized uptake value) of the kidneys (the region of interest (ROI) was set excluding the renal pelvis) and the average value of SUV of normal tissue in each slice were measured. Based on these values, the lesion-to-normal tissue ratio and the normal kidney-to-normal tissue ratio were used for evaluation. Student's t-test was used for statistical analysis of the measured results.
# (§3) ^18F-FMISO (radiochemical purity: 96% or more) was administered to the four CKD models prepared in Example 1 at 18.7±1.1 MBq/rat and to four healthy models at 19.5±0.69 MBq/rat, and after 80 minutes from the administration, static imaging was performed using a PET system for animals (eXplore Vista from GE). One case each from each of the groups was placed under anesthesia again after the PET imaging, and imaging was performed after 180 minutes from the administration. The collection conditions were 10 minutes at an energy window of 250 to 700 keV, and the collected data were reconstructed and imaged using the 3D-OSEM method. From the images, the average of maximum values of SUV of the kidneys (the region of interest (ROI) was set excluding the renal pelvis) and the average value of SUV of normal tissue in each slice were measured. Based on these values, the lesion-to-normal tissue ratio and the normal kidney-to-normal tissue ratio were used for evaluation. Student's t-test was used for statistical analysis of the measured results.
# [2] = tested on: healthy models (physiological saline-treated Lewis rats), kidneys excluding the renal pelvis; assay: PET imaging (static, SUV) in healthy models; assay type: in vivo
# Experimental: (§4) As healthy models, four cases prepared by administering an equivalent amount of physiological saline instead of adriamycin were used.
# as §2, §3
# [3] = tested on: CKD model animals (adriamycin-treated Lewis rats); assay: Experiment of in vivo distribution in CKD models; settings: 100 minutes after administration
# Experimental: as §1
# (§5) After the completion of the PET imaging in Example 2, these rats were placed under anesthesia until 100 minutes after the administration, and were sacrificed by exsanguination. Then, the left and right kidneys, blood, brain, lung, heart, liver, spleen, stomach, small intestine, large intestine, adrenal gland, muscles, bones, fat around the kidneys, urine, and the remaining whole body were extracted, and weights and amounts of radioactivity were measured. Student's t-test was used for statistical analysis of the results.
# as §5, with “Three cases from each of” for “After”, “groups that underwent” for “completion of”, “imaging after 80 minutes from the administration” for “imaging”, “5, as well as one case from each of the groups that had not undergone PET imaging,” for “2, these rats”
# [4] = tested on: healthy models (physiological saline-treated Lewis rats); assay: Experiment of in vivo distribution in healthy models; settings: healthy model; 100 minutes after administration
# Experimental: as §4, §5
# as §5, with “Three cases from each of” for “After”, “groups that underwent” for “completion of”, “imaging after 80 minutes from the administration” for “imaging”, “5, as well as one case from each of the groups that had not undergone PET imaging,” for “2, these rats”
# [5] = CKD model group, PET after 80 min from administration
# [6] = CKD model group, PET after 80 min from administration, ROI excluding renal pelvis
# [7] = CKD model, one case, PET after 180 min from administration
# [8] = healthy model group, PET after 80 min from administration
# [9] = healthy model group, PET after 80 min from administration, ROI excluding renal pelvis
# [10] = healthy model, one case, PET after 180 min from administration
structure (smiles),measurement,setting,value
"O=[N+]([O-])c1nccn1CC(O)C[18F] (stereo not shown) [^18F-FMISO, 1-[^18F]fluoro-3-(2-nitro-1H-imidazol-1-yl)-2-propanol]",Normal Tissue SUV Average Value,[1]; [5],0.94 ± 0.11
same,"Renal Tissue (Lesion or Normal)-to-Normal Tissue Ratio, Left",[1]; [5],2.11 ± 0.14
same,"Renal Tissue (Lesion or Normal)-to-Normal Tissue Ratio, Right",[1]; [5],2.22 ± 0.10
same,"Renal Tissue SUV Maximum Value, Left",[1]; [5],1.97 ± 0.15
same,"Renal Tissue SUV Maximum Value, Right",[1]; [6],2.08 ± 0.22
same,Normal Tissue SUV Average Value,[1]; [7],0.87
same,"Renal Tissue (Lesion or Normal)-to-Normal Tissue Ratio, Left",[1]; [7],3.17
same,"Renal Tissue (Lesion or Normal)-to-Normal Tissue Ratio, Right",[1]; [7],2.87
same,"Renal Tissue SUV Maximum Value, Left",[1]; [7],2.77
same,"Renal Tissue SUV Maximum Value, Right",[1]; [7],2.51
same,Uptake in renal cortex versus renal pelvis,[1]; PET images after 180 minutes compared with after 80 minutes from administration,a tendency toward a higher uptake in the renal cortex than in the renal pelvis
same,Change of SUV maximum value (ROI analysis),[1]; after 180 minutes versus after 80 minutes from administration,a tendency for the SUV maximum value to increase more than that after 80 minutes from the administration
same,"Uptake into renal tissue excluding the renal pelvis, CKD models versus healthy models",[1]; summary of Examples 2 to 6,"uptaken into the renal tissue excluding the renal pelvis in the CKD models significantly, compared with the healthy models"
same,Normal Tissue SUV Average Value,[2]; [8],0.89 ± 0.03
same,"Renal Tissue (Lesion or Normal)-to-Normal Tissue Ratio, Left",[2]; [8],1.95 ± 0.05
same,"Renal Tissue (Lesion or Normal)-to-Normal Tissue Ratio, Right",[2]; [8],1.89 ± 0.13
same,"Renal Tissue SUV Maximum Value, Left",[2]; [8],1.74 ± 0.08
same,"Renal Tissue SUV Maximum Value, Right",[2]; [9],1.68 ± 0.14
same,Normal Tissue SUV Average Value,[2]; [10],0.72
same,"Renal Tissue (Lesion or Normal)-to-Normal Tissue Ratio, Left",[2]; [10],2.31
same,"Renal Tissue (Lesion or Normal)-to-Normal Tissue Ratio, Right",[2]; [10],2.26
same,"Renal Tissue SUV Maximum Value, Left",[2]; [10],1.67
same,"Renal Tissue SUV Maximum Value, Right",[2]; [10],1.63
same,"In vivo distribution (radioactivity uptake), Blood",[3],0.44 ± 0.02
same,"In vivo distribution (radioactivity uptake), Heart",[3],0.53 ± 0.01
same,"In vivo distribution (radioactivity uptake), Kidney (Left)",[3],1.08 ± 0.28
same,"In vivo distribution (radioactivity uptake), Kidney (Right)",[3],1.09 ± 0.29
same,"In vivo distribution (radioactivity uptake), Large Intestine",[3],1.14 ± 0.10
same,"In vivo distribution (radioactivity uptake), Liver",[3],0.89 ± 0.28
same,"In vivo distribution (radioactivity uptake), Lung",[3],0.48 ± 0.02
same,"In vivo distribution (radioactivity uptake), Muscles",[3],0.47 ± 0.02
same,"In vivo distribution (radioactivity uptake), Small Intestine",[3],1.54 ± 0.67
same,"In vivo distribution (radioactivity), Urine",[3],2.60 ± 2.16 % ID
same,"In vivo distribution (radioactivity uptake), Blood",[4],0.30 ± 0.02
same,"In vivo distribution (radioactivity uptake), Heart",[4],0.34 ± 0.02
same,"In vivo distribution (radioactivity uptake), Kidney (Left)",[4],0.53 ± 0.03
same,"In vivo distribution (radioactivity uptake), Kidney (Right)",[4],0.55 ± 0.03
same,"In vivo distribution (radioactivity uptake), Large Intestine",[4],1.52 ± 0.15
same,"In vivo distribution (radioactivity uptake), Liver",[4],0.50 ± 0.04
same,"In vivo distribution (radioactivity uptake), Lung",[4],0.31 ± 0.02
same,"In vivo distribution (radioactivity uptake), Muscles",[4],0.30 ± 0.02
same,"In vivo distribution (radioactivity uptake), Small Intestine",[4],0.74 ± 0.11
same,"In vivo distribution (radioactivity), Urine",[4],9.50 ± 1.75 % ID
"O=[N+]([O-])c1nccn1CC(CO)(CO)C[18F] [^18F-HIC101, 2-[^18F]fluoromethyl-2-((2-nitro-1H-imidazol-1-yl)methyl)-1,3-propanediol]",Normal Tissue SUV Average Value,[1]; [5],0.46 ± 0.04^$
same,"Renal Tissue (Lesion or Normal)-to-Normal Tissue Ratio, Left",[1]; [5],11.59 ± 1.88
same,"Renal Tissue (Lesion or Normal)-to-Normal Tissue Ratio, Right",[1]; [5],11.33 ± 1.57
same,"Renal Tissue SUV Maximum Value, Left",[1]; [5],5.25 ± 0.55
same,"Renal Tissue SUV Maximum Value, Right",[1]; [6],5.17 ± 0.70
same,SUV maximum value of renal tissue in the example shown in FIG. 1,"[1]; MIP PET image of FIG. 1, after 80 minutes from administration",10
same,"SUV maximum value of the CKD model examined for HIF-1α expression, (left)","[1]; individual CKD model of FIG. 3, (left)",4.30
same,"SUV maximum value of the CKD model examined for HIF-1α expression, (right)","[1]; individual CKD model of FIG. 3, (right)",5.12
same,Comparison of uptake in the CKD models between the two agents,[1]; summary of Examples 2 to 6,higher than the uptake of ^18F-FMISO
same,"Uptake into renal tissue excluding the renal pelvis, CKD models versus healthy models",[1]; summary of Examples 2 to 6,"uptaken into the renal tissue excluding the renal pelvis in the CKD models significantly, compared with the healthy models"
same,Normal Tissue SUV Average Value,[2]; [8],0.37 ± 0.06
same,"Renal Tissue (Lesion or Normal)-to-Normal Tissue Ratio, Left",[2]; [8],3.69 ± 0.37
same,"Renal Tissue (Lesion or Normal)-to-Normal Tissue Ratio, Right",[2]; [8],3.77 ± 0.66
same,"Renal Tissue SUV Maximum Value, Left",[2]; [8],1.37 ± 0.28
same,"Renal Tissue SUV Maximum Value, Right",[2]; [9],1.42 ± 0.43
same,SUV maximum value of the healthy model examined for HIF-1α expression,[2]; individual healthy model of FIG. 3,1.06
same,"In vivo distribution (radioactivity uptake), Blood",[3],0.16 ± 0.04
same,"In vivo distribution (radioactivity uptake), Heart",[3],0.18 ± 0.04
same,"In vivo distribution (radioactivity uptake), Kidney (Left)",[3],2.11 ± 0.44
same,"In vivo distribution (radioactivity uptake), Kidney (Right)",[3],2.60 ± 0.58
same,"In vivo distribution (radioactivity uptake), Large Intestine",[3],3.17 ± 0.08
same,"In vivo distribution (radioactivity uptake), Liver",[3],0.34 ± 0.05
same,"In vivo distribution (radioactivity uptake), Lung",[3],0.18 ± 0.05
same,"In vivo distribution (radioactivity uptake), Muscles",[3],0.26 ± 0.04
same,"In vivo distribution (radioactivity uptake), Small Intestine",[3],0.25 ± 0.82
same,"In vivo distribution (radioactivity), Urine",[3],29.9 ± 14.9 % ID
same,"In vivo distribution (radioactivity uptake), Blood",[4],0.08 ± 0.03
same,"In vivo distribution (radioactivity uptake), Heart",[4],0.09 ± 0.03
same,"In vivo distribution (radioactivity uptake), Kidney (Left)",[4],1.17 ± 0.61
same,"In vivo distribution (radioactivity uptake), Kidney (Right)",[4],1.01 ± 0.24
same,"In vivo distribution (radioactivity uptake), Large Intestine",[4],0.32 ± 0.44
same,"In vivo distribution (radioactivity uptake), Liver",[4],0.23 ± 0.06
same,"In vivo distribution (radioactivity uptake), Lung",[4],0.08 ± 0.03
same,"In vivo distribution (radioactivity uptake), Muscles",[4],0.09 ± 0.03
same,"In vivo distribution (radioactivity uptake), Small Intestine",[4],4.50 ± 0.70
same,"In vivo distribution (radioactivity), Urine",[4],34.4 ± 23.3 % ID
